According to ChEMBL document CHEMBL3885861, “Open TG-GATES”:

Species on record: Rattus norvegicus
Test: Open TG-GATES - Regimen: Single
Format: toxicity, organism-based, Sprague-Dawley
Set-up: regimen Single, gender Male, age 6 weeks
Details: in vivo, po, 0 mg/kg, route gavage, dose level Control; for APTT / Bas / Eos / Fbg / Hb / Ht / Lym / MCH / MCHC / MCV / Mono / Neu / PT / Plat / RBC / Ret / WBC: tissue Blood; for KIDNEY_L / KIDNEY_R / KIDNEY_TOTAL: tissue Kidney; for LIVER: tissue Liver; for A/G / ALP / ALT / AST / BUN / CRE / Ca / Cl / DBIL / GLC / IP / K / LDH / Na / PL / RALB / TBIL / TC / TG / TP / gamma-GTP: tissue Plasma

SMILES: CCCCNC(=O)NS(=O)(=O)c1ccc(C)cc1 [TOLBUTAMIDE]
- TERMINAL_BW (3 h): 203.9 g
- APTT (3 h): 16.5 s
- Bas (3 h): 0%
- Eos (3 h): 0.8%
- Fbg (3 h): 286.6 mg/dL
- Hb (3 h): 13.7 g/dL
- Ht (3 h): 42.1%
- Lym (3 h): 78.2%
- MCH (3 h): 21 pg
- MCHC (3 h): 32.5%
- MCV (3 h): 64.8 fL
- Mono (3 h): 2.8%
- Neu (3 h): 18%
- PT (3 h): 12.9 s
- Plat (3 h): 128.5 x10_4/uL
- RBC (3 h): 649.4 x10_4/ul
- Ret (3 h): 8.5%
- WBC (3 h): 86 x10_2/uL
- KIDNEY_L (3 h): 0.9 g
- KIDNEY_R (3 h): 0.9 g
- KIDNEY_TOTAL (3 h): 1.8 g
- LIVER (3 h): 9.1 g
- A/G (3 h): 0.9
- ALP (3 h): 1445.2 IU/L
- ALT (3 h): 43.8 IU/L
- AST (3 h): 73.6 IU/L
- BUN (3 h): 9.8 mg/dL
- CRE (3 h): 0.2 mg/dL
- Ca (3 h): 11 mg/dL
- Cl (3 h): 106.8 meq/L
- DBIL (3 h): 0.006 mg/dL
- GLC (3 h): 175 mg/dL
- IP (3 h): 8.9 mg/dL
- K (3 h): 4.1 meq/L
- LDH (3 h): 52.4 IU/L
- Na (3 h): 141.6 meq/L
- PL (3 h): 145 mg/dL
- RALB (3 h): 2.5 g/dL
- TBIL (3 h): 0.078 mg/dL
- TC (3 h): 80.8 mg/dL
- TG (3 h): 54.6 mg/dL
- TP (3 h): 5.3 g/dL
- gamma-GTP (3 h): 1 IU/L
- TERMINAL_BW (6 h): 204 g
- APTT (6 h): 18.7 s
- Bas (6 h): 0.2%
- Eos (6 h): 1%
- Fbg (6 h): 279.6 mg/dL
- Hb (6 h): 13.6 g/dL
- Ht (6 h): 41.9%
- Lym (6 h): 80.4%
- MCH (6 h): 20.6 pg
- MCHC (6 h): 32.5%
- MCV (6 h): 63.6 fL
- Mono (6 h): 2%
- Neu (6 h): 15.8%
- PT (6 h): 13.1 s
- Plat (6 h): 131.1 x10_4/uL
- RBC (6 h): 659.4 x10_4/ul
- Ret (6 h): 8.1%
- WBC (6 h): 84.4 x10_2/uL
- KIDNEY_L (6 h): 0.9 g
- KIDNEY_R (6 h): 0.9 g
- KIDNEY_TOTAL (6 h): 1.9 g
- LIVER (6 h): 8.8 g
- A/G (6 h): 0.9
- ALP (6 h): 1197.4 IU/L
- ALT (6 h): 36.6 IU/L
- AST (6 h): 66.4 IU/L
- BUN (6 h): 8.4 mg/dL
- CRE (6 h): 0.2 mg/dL
- Ca (6 h): 10.7 mg/dL
- Cl (6 h): 105.6 meq/L
- DBIL (6 h): 0.01 mg/dL
- GLC (6 h): 172.6 mg/dL
- IP (6 h): 9.5 mg/dL
- K (6 h): 4.1 meq/L
- LDH (6 h): 49 IU/L
- Na (6 h): 141.2 meq/L
- PL (6 h): 138.4 mg/dL
- RALB (6 h): 2.5 g/dL
- TBIL (6 h): 0.078 mg/dL
- TC (6 h): 78.8 mg/dL
- TG (6 h): 46.6 mg/dL
- TP (6 h): 5.2 g/dL
- gamma-GTP (6 h): 1 IU/L
- TERMINAL_BW (9 h): 202.2 g
- APTT (9 h): 15.8 s
- Bas (9 h): 0.2%
- Eos (9 h): 1.2%
- Fbg (9 h): 284 mg/dL
- Hb (9 h): 13.3 g/dL
- Ht (9 h): 40.1%
- Lym (9 h): 75.6%
- MCH (9 h): 21 pg
- MCHC (9 h): 33%
- MCV (9 h): 63.6 fL
- Mono (9 h): 2%
- Neu (9 h): 20.8%
- PT (9 h): 13.3 s
- Plat (9 h): 121 x10_4/uL
- RBC (9 h): 633 x10_4/ul
- Ret (9 h): 8.3%
- WBC (9 h): 72.5 x10_2/uL
- KIDNEY_L (9 h): 0.9 g
- KIDNEY_R (9 h): 1 g
- KIDNEY_TOTAL (9 h): 1.9 g
- LIVER (9 h): 7.9 g
- A/G (9 h): 0.9
- ALP (9 h): 1161.6 IU/L
- ALT (9 h): 38.6 IU/L
- AST (9 h): 73.8 IU/L
- BUN (9 h): 7.6 mg/dL
- CRE (9 h): 0.1 mg/dL
- Ca (9 h): 10.7 mg/dL
- Cl (9 h): 106.2 meq/L
- DBIL (9 h): 0 mg/dL
- GLC (9 h): 166.8 mg/dL
- IP (9 h): 9.4 mg/dL
- K (9 h): 4.3 meq/L
- LDH (9 h): 60.8 IU/L
- Na (9 h): 141 meq/L
- PL (9 h): 132.8 mg/dL
- RALB (9 h): 2.5 g/dL
- TBIL (9 h): 0.078 mg/dL
- TC (9 h): 78.4 mg/dL
- TG (9 h): 33.2 mg/dL
- TP (9 h): 5.2 g/dL
- gamma-GTP (9 h): 1 IU/L
- TERMINAL_BW (24 h): 220 g
- APTT (24 h): 17.4 s
- Bas (24 h): 0.2%
- Eos (24 h): 1.2%
- Fbg (24 h): 296 mg/dL
- Hb (24 h): 13.3 g/dL
- Ht (24 h): 40.5%
- Lym (24 h): 74.2%
- MCH (24 h): 21.3 pg
- MCHC (24 h): 32.9%
- MCV (24 h): 64.9 fL
- Mono (24 h): 3%
- Neu (24 h): 20.4%
- PT (24 h): 12.9 s
- Plat (24 h): 123.6 x10_4/uL
- RBC (24 h): 624.8 x10_4/ul
- Ret (24 h): 7.7%
- WBC (24 h): 89 x10_2/uL
- KIDNEY_L (24 h): 1 g
- KIDNEY_R (24 h): 1 g
- KIDNEY_TOTAL (24 h): 2 g
- LIVER (24 h): 10.3 g
- A/G (24 h): 0.9
- ALP (24 h): 1544.6 IU/L
- ALT (24 h): 44.6 IU/L
- AST (24 h): 67 IU/L
- BUN (24 h): 15.2 mg/dL
- CRE (24 h): 0.2 mg/dL
- Ca (24 h): 11.2 mg/dL
- Cl (24 h): 104.8 meq/L
- DBIL (24 h): 0.01 mg/dL
- GLC (24 h): 171.2 mg/dL
- IP (24 h): 8.3 mg/dL
- K (24 h): 4 meq/L
- LDH (24 h): 78 IU/L
- Na (24 h): 141.6 meq/L
- PL (24 h): 162.4 mg/dL
- RALB (24 h): 2.6 g/dL
- TBIL (24 h): 0.066 mg/dL
- TC (24 h): 89.8 mg/dL
- TG (24 h): 85.4 mg/dL
- TP (24 h): 5.6 g/dL
- gamma-GTP (24 h): 1.2 IU/L
